# Values quoted from earlier work in patent US6491840B1, “Polymer compositions having specified PH for improved dispensing and improved stability of wrinkle reducing compositions and methods of use” (The Procter & Gamble Company, priority 2000, dated 2002).
smiles,measurement,value
"ClC=CC[N+]12CN3CN(CN(C3)C1)C2.[Cl-] [Dowicil 200, 1-(3-Chlorallyl)-3,5,7-triaza-1-azoniaadamantane chloride]",solubility in water,freely soluble in water
